Tested on: Zucker fa/fa rats
Test: Acute oral glucose tolerance test (OGTT)
Type: in vivo, rat
Conditions: oral; Example 1 at 1, 3 and 10 mg/kg, TAK875 at 1 mg/kg; p<0.05
Method: OGTTs are performed in Zucker fa/fa rats, a rodent model of insulin resistance, after 1 and 21 days of orally administered material at 1.0, 3.0 and 10 mg/kg. TAK875 at 1 mg/kg served as the positive control. The OGTTs are performed one hour post compound administration with blood samples taken for determination of glucose and insulin levels at 10, 20, 40, 60, and 120 minutes post glucose administration.

Row | SMILES | AUCs for glucose lowering
1 | Cc1cc(OCCCS(C)(=O)=O)cc(C)c1-c1cccc(COc2ccc3c(c2)OC[C@H]3CC(=O)O)c1 [TAK875, fasiglifam, reference compound] | statistically significant

Biological target: hGPR40 (Homo sapiens, UniProt O14842)
Sequence (O14842 whole entry): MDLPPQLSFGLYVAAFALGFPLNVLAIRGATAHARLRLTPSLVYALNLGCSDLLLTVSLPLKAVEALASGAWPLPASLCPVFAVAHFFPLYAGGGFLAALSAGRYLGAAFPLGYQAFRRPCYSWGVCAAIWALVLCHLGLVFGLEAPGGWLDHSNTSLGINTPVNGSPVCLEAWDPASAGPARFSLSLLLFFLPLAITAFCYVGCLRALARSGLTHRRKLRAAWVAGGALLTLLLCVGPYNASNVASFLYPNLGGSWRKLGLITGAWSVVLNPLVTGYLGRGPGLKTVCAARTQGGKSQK
Test: Calcium Flux Primary Assay (FLIPR, Calcium 4 Dye)
Type: cell-based
Design: expressed in transfected cells; host or cells: HEK293
Conditions: HEK293, HEK293 cells over expressing human GPR40; vs natural ligand linoleic acid; read-out: efficacy (maximal response compared to linoleic acid)
Method: HEK293 cells over expressing the human GPR40 cDNA maintained in Dulbecco's modified Eagle's medium with F12 medium in 3:1 ratio supplemented with 10% FBS and 800 μg/ml geneticin at 37° C. and 5% CO2 are employed for the study. Agonist assays are performed using a Calcium 4 Dye assay kit (Molecular Devices) in the presence or absence of 0.1% fatty acid free BSA in the assay buffer (1×HBSS (Hank's Balanced Salt Solution) & 20 mM HEPES (4-(2-hydroxyethyl)-1-piperazineethanesulfonic acid). Receptor activation is measured as an increase in intracellular calcium using the Fluorometric Imaging Plate Reader (FLIPR). Maximum change in fluorescence over the base line is used to determine the agonist response. The EC50 value of the compound is calculated using Excel Fit software (version 4; IDBS) by plotting concentration vs relative fluorescence units (RFUs).

Row | SMILES | Emax
2 | CC#C[C@@H](CC(=O)O)c1ccc(OCc2cc(-c3ccc(OC)cc3)cn3ncnc23)cc1 [Example 2, (S)-3-{4-[6-(4-Methoxy-phenyl)-[1,2,4]triazolo[1,5-a]pyridin-8-ylmethoxy]-phenyl}-hex-4-ynoic acid] | > 35%
3 | CC#C[C@@H](CC(=O)O)c1ccc(OCc2cc(-c3c(C)cccc3F)cn3ncnc23)cc1 [Example 3, (S)-3-{4-[6-(2-Fluoro-6-methyl-phenyl)-[1,2,4]triazolo[1,5-a]pyridin-8-ylmethoxy]-phenyl}-hex-4-ynoic acid] | > 35%
4 | CC#C[C@@H](CC(=O)O)c1ccc(OCc2cc(-c3ccc(OC)cc3C)cn3ncnc23)cc1 [Example 4, (S)-3-{4-[6-(4-Methoxy-2-methyl-phenyl)-[1,2,4]triazolo[1,5-a]pyridin-8-ylmethoxy]-phenyl}-hex-4-ynoic acid] | > 35%
5 | CC#C[C@@H](CC(=O)O)c1ccc(OCc2cc(-c3c(C)cc(OC)cc3C)cn3ncnc23)cc1 [Example 5, (S)-3-{4-[6-(4-Methoxy-2,6-dimethyl-phenyl)-[1,2,4]triazolo[1,5-a]pyridin-8-ylmethoxy]-phenyl}-hex-4-ynoic acid] | > 35%
6 | CC#C[C@@H](CC(=O)O)c1ccc(OCc2cc(-c3cc(OC)ccc3F)cn3ncnc23)cc1 [Example 6] | > 35%
7 | CC#C[C@@H](CC(=O)O)c1ccc(OCc2cc(-c3ccc(OCCCS(C)(=O)=O)cc3C)cn3ncnc23)cc1 [Example 7, (S)-3-(4-{6-[4-(3-Methanesulfonyl-propoxy)-2-methyl-phenyl]-[1,2,4]triazolo[1,5-a]pyridin-8-ylmethoxy}-phenyl)-hex-4-ynoic acid] | > 35%
8 | CC#C[C@@H](CC(=O)O)c1ccc(OCc2cc(-c3ccc(OCCC(C)(C)O)cc3C)cn3ncnc23)cc1 [Example 8, (S)-3-(4-{6-[4-(3-Hydroxy-3-methyl-butoxy)-2-methyl-phenyl]-[1,2,4]triazolo[1,5-a]pyridin-8-ylmethoxy}-phenyl)-hex-4-ynoic acid] | > 35%
9 | CC#C[C@@H](CC(=O)O)c1ccc(OCc2cc(-c3ccc(C(C)C)cc3)cn3ncnc23)cc1 [Example 9, (S)-3-{4-[6-(4-Isopropyl-phenyl)-[1,2,4]triazolo[1,5-a]pyridin-8-ylmethoxy]-phenyl}-hex-4-ynoic acid] | > 35%
10 | CC#C[C@@H](CC(=O)O)c1ccc(OCc2cc(-c3c(C)cccc3C)cn3ncnc23)cc1 [Example 11, (S)-3-{4-[6-(2,6-Dimethyl-phenyl)-[1,2,4]triazolo[1,5-a]pyridin-8-ylmethoxy]-phenyl}-hex-4-ynoic acid] | > 35%
11 | CC#C[C@@H](CC(=O)O)c1ccc(OCc2cc(-c3cc(Cl)ccc3C)cn3ncnc23)cc1 [Example 12] | > 35%
12 | CC#C[C@@H](CC(=O)O)c1ccc(OCc2cc(-c3ccc(C#N)cc3)cn3ncnc23)cc1 [Example 13, (S)-3-{4-[6-(4-Cyano-phenyl)-[1,2,4]triazolo[1,5-a]pyridin-8-ylmethoxy]-phenyl}-hex-4-ynoic acid] | > 35%
13 | CC#C[C@@H](CC(=O)O)c1ccc(OCc2cc(-c3ccc(C(F)F)cc3)cn3ncnc23)cc1 [Example 15, (S)-3-{4-[6-(4-Difluoromethyl-phenyl)-[1,2,4]triazolo[1,5-a]pyridin-8-ylmethoxy]-phenyl}-hex-4-ynoic acid] | > 35%
14 | CC#C[C@@H](CC(=O)O)c1ccc(OCc2cc(-c3ccc(OCC#N)cc3C)cn3ncnc23)cc1 [Example 16, (S)-3-{4-[6-(4-Cyanomethoxy-2-methyl-phenyl)-[1,2,4]triazolo[1,5-a]pyridin-8-ylmethoxy]-phenyl}-hex-4-ynoic acid] | > 35%
15 | CC#C[C@@H](CC(=O)O)c1ccc(OCc2cc(-c3ccc(S(C)(=O)=O)cc3)cn3ncnc23)cc1 [Example 17] | > 35%
16 | CC#C[C@@H](CC(=O)O)c1ccc(OCc2cc(-c3ccc(S(N)(=O)=O)cc3C)cn3ncnc23)cc1 [Example 18, (S)-3-{4-[6-(2-Methyl-4-sulfamoyl-phenyl)-[1,2,4]triazolo[1,5-a]pyridin-8-ylmethoxy]-phenyl}-hex-4-ynoic acid] | > 35%
17 | CC#C[C@@H](CC(=O)O)c1ccc(OCc2cc(-c3ccc(C(C)(C)C#N)cc3)cn3ncnc23)cc1 [Example 19, (S)-3-(4-{6-[4-(Cyano-dimethyl-methyl)-phenyl]-[1,2,4]triazolo[1,5-a]pyridin-8-ylmethoxy}-phenyl)-hex-4-ynoic acid] | > 35%
18 | CC#C[C@@H](CC(=O)O)c1ccc(OCc2cc(-c3ccc(OC(F)F)cc3C)cn3ncnc23)cc1 [Example 20, (S)-3-{4-[6-(4-Difluoromethoxy-2-methyl-phenyl)-[1,2,4]triazolo[1,5-a]pyridin-8-ylmethoxy]-phenyl}-hex-4-ynoic acid] | > 35%

Tested on: Male Balb/c mice
Test: Intraperitoneal glucose tolerance test (IPGTT)
Type: in vivo, mouse
Conditions: 30 and 60 minute time points; Example 1 at 10, 30, 100 mg/kg oral; positive control 10 mg/kg
Method: To examine the ability of Examples 1 to 20 to activate GPR40 in-vivo resulting in desired glucose lowering efficacy, i.e. reduction in plasma glucose levels, an intraperitoneal glucose tolerance test (ipGTT) study is completed, and the data is shown for the compound tested below.
Male Balb/c (Albino mice) mice (8-9 weeks of age) are single housed, and fed with normal rodent chow diet and water ad libitum. Animals are weighed; randomized by body weight; and their daily body weights are recorded. Animals are dosed daily using a formulation carrying methylcellulose and tween-80. On the night before the study, animals are fasted. In the morning, animals are dosed orally with compound or vehicle alone 60 minutes prior to the glucose tolerance test (glucose 2 g/kg, i.p.). Blood glucose levels are determined from tail bleeds taken at 0, 3, 7, 15, 30, and 60 min after glucose challenge. […] Percent lowering in glucose is calculated from the AUC data of the compound with respect to the AUC of vehicle group. The test compound is orally administered at 0.3, 1.0, 3.0, 10, 30, or 100 mg/kg, and a positive control (3-[4-(2-methyl-benzyloxy)-phenyl]-hex-4-ynoic acid, see WO2005086661 (TAK875).) is administered at 10 mg/kg. […] Glucose levels are lowered at the 30, and 60 minute time points for the positive control.

Row | SMILES | Glucose levels compared to vehicle control
19 | Cc1cc(OCCCS(C)(=O)=O)cc(C)c1-c1cccc(COc2ccc3c(c2)OC[C@H]3CC(=O)O)c1 [TAK875, fasiglifam, reference compound] | lowered
